Values joined by “and” are separate entries in the source; they are usually repeats but may differ in a detail not shown here. Equal values may be shown once.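 Tested at 5 concentrations; 48 h exposure; 96-well plates; endpoints linearly interpolated, else capped at highest concentration. GI50: concentration for 50% inhibition of growth. Definition used: TGI = concentration required for complete inhibition of growth.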
What was measured:
Assay in all cases: growth of human tumour cells (NCI), 48 h
RXF 393 renal = tested on: RXF 393 renal
HS 578T breast = tested on: HS 578T breast
MDA-MB-435 = tested on: MDA-MB-435
786-0 renal = tested on: 786-0 renal
CCRF-CEM leukemia = tested on: CCRF-CEM leukemia
HCC-2998 colon = tested on: HCC-2998 colon
MDA-N = tested on: MDA-N
UACC-62 melanoma = tested on: UACC-62 melanoma
A498 renal = tested on: A498 renal
EKVX NSCLC = tested on: EKVX NSCLC
NCI-H23 lung = tested on: NCI-H23 lung
SK-MEL-5 melanoma = tested on: SK-MEL-5 melanoma
SF-539 CNS = tested on: SF-539 CNS
MDA-MB-231 breast = tested on: MDA-MB-231 breast
SNB-75 CNS = tested on: SNB-75 CNS
NCI/ADR-RES ovarian = tested on: NCI/ADR-RES ovarian
SN12C renal = tested on: SN12C renal
LOX IMVI melanoma = tested on: LOX IMVI melanoma
SR leukemia = tested on: SR leukemia
U251 CNS = tested on: U251 CNS
NCI-H522 lung = tested on: NCI-H522 lung
UACC-257 melanoma = tested on: UACC-257 melanoma
UO-31 renal = tested on: UO-31 renal
COLO 205 colon = tested on: COLO 205 colon
OVCAR-5 ovarian = tested on: OVCAR-5 ovarian
HOP-92 NSCLC = tested on: HOP-92 NSCLC
BT-549 breast = tested on: BT-549 breast
SW-620 colon = tested on: SW-620 colon
ACHN renal = tested on: ACHN renal
HCT-15 colon = tested on: HCT-15 colon
SK-MEL-2 melanoma = tested on: SK-MEL-2 melanoma
PC-3 prostate = tested on: PC-3 prostate
K-562 leukemia = tested on: K-562 leukemia
MALME-3M melanoma = tested on: MALME-3M melanoma
SK-MEL-28 melanoma = tested on: SK-MEL-28 melanoma
NCI-H460 lung = tested on: NCI-H460 lung
NCI-H226 lung = tested on: NCI-H226 lung
IGROV1 ovarian = tested on: IGROV1 ovarian
OVCAR-8 ovarian = tested on: OVCAR-8 ovarian
RPMI-8226 leukemia = tested on: RPMI-8226 leukemia
TK-10 renal = tested on: TK-10 renal
CAKI-1 renal = tested on: CAKI-1 renal
HCT-116 colon = tested on: HCT-116 colon
T-47D breast = tested on: T-47D breast
A549 NSCLC = tested on: A549 NSCLC
HL-60(TB) leukemia = tested on: HL-60(TB) leukemia
MCF7 breast = tested on: MCF7 breast
SNB-19 CNS = tested on: SNB-19 CNS
SF-268 CNS = tested on: SF-268 CNS
DU-145 prostate = tested on: DU-145 prostate
KM12 colon = tested on: KM12 colon
M14 melanoma = tested on: M14 melanoma
MOLT-4 leukemia = tested on: MOLT-4 leukemia
HT29 colon = tested on: HT29 colon
OVCAR-4 ovarian = tested on: OVCAR-4 ovarian
HOP-62 NSCLC = tested on: HOP-62 NSCLC
SF-295 CNS = tested on: SF-295 CNS

Compound: CCc1c(Cc2cccc3ccccc23)n2c(nc1=O)SCC2OCCO (configuration not stated)
- TGI (RXF 393 renal): > 100000 nM
- TGI (HS 578T breast): > 100000 nM
- TGI (MDA-MB-435): 38400 nM
- TGI (786-0 renal): > 100000 nM
- TGI (CCRF-CEM leukemia): 74000 nM
- TGI (HCC-2998 colon): > 100000 nM
- TGI (MDA-N): > 100000 nM
- TGI (UACC-62 melanoma): > 100000 nM
- TGI (A498 renal): > 100000 nM
- TGI (EKVX NSCLC): > 100000 nM
- TGI (NCI-H23 lung): > 100000 nM
- TGI (SK-MEL-5 melanoma): > 100000 nM
- TGI (SF-539 CNS): > 100000 nM
- TGI (MDA-MB-231 breast): > 100000 nM
- TGI (SNB-75 CNS): > 100000 nM
- TGI (NCI/ADR-RES ovarian): > 100000 nM
- TGI (SN12C renal): > 100000 nM
- TGI (LOX IMVI melanoma): > 100000 nM
- TGI (SR leukemia): 89400 nM
- TGI (U251 CNS): > 100000 nM
- TGI (NCI-H522 lung): > 100000 nM
- TGI (UACC-257 melanoma): > 100000 nM
- TGI (UO-31 renal): > 100000 nM
- TGI (COLO 205 colon): > 100000 nM
- TGI (OVCAR-5 ovarian): > 100000 nM
- TGI (HOP-92 NSCLC): 34700 nM
- TGI (BT-549 breast): > 100000 nM
- TGI (SW-620 colon): > 100000 nM
- TGI (ACHN renal): > 100000 nM
- TGI (HCT-15 colon): > 100000 nM
- TGI (SK-MEL-2 melanoma): > 100000 nM
- TGI (PC-3 prostate): > 100000 nM
- TGI (K-562 leukemia): > 100000 nM
- TGI (MALME-3M melanoma): > 100000 nM
- TGI (SK-MEL-28 melanoma): > 100000 nM
- TGI (NCI-H460 lung): > 100000 nM
- TGI (NCI-H226 lung): > 100000 nM
- TGI (IGROV1 ovarian): > 100000 nM
- TGI (OVCAR-8 ovarian): > 100000 nM
- TGI (RPMI-8226 leukemia): 94400 nM
- TGI (TK-10 renal): > 100000 nM
- TGI (CAKI-1 renal): > 100000 nM
- TGI (HCT-116 colon): > 100000 nM
- TGI (T-47D breast): > 100000 nM
- TGI (A549 NSCLC): > 100000 nM
- TGI (HL-60(TB) leukemia): > 100000 nM
- TGI (MCF7 breast): > 100000 nM
- TGI (SNB-19 CNS): > 100000 nM
- TGI (SF-268 CNS): > 100000 nM
- TGI (DU-145 prostate): > 100000 nM
- TGI (KM12 colon): > 100000 nM
- TGI (M14 melanoma): > 100000 nM
- TGI (MOLT-4 leukemia): > 100000 nM
- TGI (HT29 colon): > 100000 nM
- TGI (OVCAR-4 ovarian): > 100000 nM

Compound: CC(CN(C)C)Nc1c2ccccc2nc2cccc([N+](=O)[O-])c12 (configuration not stated)
- TGI (RXF 393 renal): 14900 nM
- GI50 (HS 578T breast): < 10 nM
- TGI (HS 578T breast): < 10 nM
- TGI (CCRF-CEM leukemia): 2870 nM
- TGI (MDA-N): 748 nM
- GI50 (SK-MEL-5 melanoma): 71.5 nM and < 10 nM
- GI50 (SF-539 CNS): 337 nM and < 37.8 nM
- TGI (SF-539 CNS): 1310 nM
- GI50 (HOP-62 NSCLC): 120 nM and < 13 nM
- TGI (MDA-MB-231 breast): 2640 nM
- GI50 (SNB-75 CNS): 342 nM and 43.1 nM
- TGI (SNB-75 CNS): 1590 nM and 268 nM
- TGI (NCI-H522 lung): 111 nM
- GI50 (UO-31 renal): 188 nM and < 23.7 nM
- TGI (UO-31 renal): 457 nM and 887 nM
- GI50 (SF-295 CNS): 96.8 nM and < 10 nM
- GI50 (HOP-92 NSCLC): 226 nM and 25.8 nM
- GI50 (BT-549 breast): 540 nM
- TGI (BT-549 breast): 1900 nM
- GI50 (SW-620 colon): 306 nM
- TGI (SW-620 colon): 11800 nM
- TGI (K-562 leukemia): 764 nM
- GI50 (NCI-H460 lung): 24.8 nM and < 11.1 nM
- TGI (NCI-H460 lung): 206 nM and 711 nM
- TGI (IGROV1 ovarian): 10100 nM
- GI50 (HCT-116 colon): 26 nM and < 10 nM
- GI50 (HL-60(TB) leukemia): 18.2 nM
- TGI (MCF7 breast): 636 nM
- GI50 (DU-145 prostate): 74.7 nM and < 21.9 nM
- TGI (DU-145 prostate): 11900 nM
- TGI (HT29 colon): 1020 nM and 413 nM
- TGI (OVCAR-4 ovarian): 610 nM and 5210 nM
